The record followed here is PubChem BioAssay AID1259407 (Chemical Carcinogenesis Research Information System (CCRIS), 2018).

The source made the active and inactive calls. No rule for the calls is given here.

This data set deals with CCRIS mutagenicity, Ames/micronucleus/aberration tests. The data set can be described thus: CCRIS mutagenicity studies.
Where [1] appears, read: Test System: AMES SALMONELLA TYPHIMURIUM, Strain/Indicator: TA98, Metabolic Activation: NONE, Method: PREINCUBATION
The mark [2] stands for this setting: Test System: AMES SALMONELLA TYPHIMURIUM, Strain/Indicator: TA100, Metabolic Activation: NONE, Method: PREINCUBATION
The mark [3] stands for this setting: Test System: AMES SALMONELLA TYPHIMURIUM, Strain/Indicator: TA1535, Metabolic Activation: NONE, Method: PREINCUBATION
Setting [4] is: Test System: AMES SALMONELLA TYPHIMURIUM, Strain/Indicator: TA1537, Metabolic Activation: NONE, Method: PREINCUBATION
Where [5] appears, read: Test System: AMES SALMONELLA TYPHIMURIUM, Strain/Indicator: TA100, Metabolic Activation: NONE, Method: STANDARD PLATE.

For `COc1cc(OC)c(Cl)c(-n2c(-c3ccccc3)cc(=O)c(C)c2-c2ccc(F)cc2)c1`, the mutagenic call reads like this: under setting [1], “inactive; negative”; (Test System: AMES SALMONELLA TYPHIMURIUM, Strain/Indicator: TA98, Metabolic Activation: S-9, Method: PREINCUBATION) “inactive; negative”; under setting [2], “inactive; negative”; (Test System: AMES SALMONELLA TYPHIMURIUM, Strain/Indicator: TA100, Metabolic Activation: S-9, Method: PREINCUBATION) “inactive; negative”; (Test System: AMES SALMONELLA TYPHIMURIUM, Strain/Indicator: TA102, Metabolic Activation: NONE, Method: PREINCUBATION) “inactive; negative”; (Test System: AMES SALMONELLA TYPHIMURIUM, Strain/Indicator: TA102, Metabolic Activation: S-9, Method: PREINCUBATION) “inactive; negative”. The mutagenic call by setting is: under setting [3], “inactive; negative”; (Test System: AMES SALMONELLA TYPHIMURIUM, Strain/Indicator: TA1535, Metabolic Activation: S-9, Method: PREINCUBATION) “inactive; negative”; under setting [4], “inactive; negative”; (Test System: AMES SALMONELLA TYPHIMURIUM, Strain/Indicator: TA1537, Metabolic Activation: S-9, Method: PREINCUBATION) “inactive; negative”; (Test System: E. COLI, Strain/Indicator: WP2 UVRA, Metabolic Activation: NONE, Method: PREINCUBATION) “inactive; negative”; (Test System: E. COLI, Strain/Indicator: WP2 UVRA, Metabolic Activation: S-9, Method: PREINCUBATION) “inactive; negative”.

Consider `C/C=C1\CC2C=CC1C2` (centres undefined), for which the mutagenic call (Test System: AMES SALMONELLA TYPHIMURIUM, Strain/Indicator: TA98, Metabolic Activation: HAMSTER, LIVER, S-9, AROCLOR 1254 (10%), Method: PREINCUBATION) is “inactive; negative”; the mutagenic call under setting [1] was “inactive; negative”; the mutagenic call (Test System: AMES SALMONELLA TYPHIMURIUM, Strain/Indicator: TA98, Metabolic Activation: NONE, Method: STANDARD PLATE) is “inactive; negative”; the mutagenic call (Test System: AMES SALMONELLA TYPHIMURIUM, Strain/Indicator: TA98, Metabolic Activation: RAT LIVER S-9, AROCLOR 1254, Method: STANDARD PLATE) was “inactive; negative”; the mutagenic call (Test System: AMES SALMONELLA TYPHIMURIUM, Strain/Indicator: TA98, Metabolic Activation: RAT, LIVER, S-9, AROCLOR 1254 (10%), Method: PREINCUBATION) is “inactive; negative”; the mutagenic call (Test System: AMES SALMONELLA TYPHIMURIUM, Strain/Indicator: TA100, Metabolic Activation: HAMSTER, LIVER, S-9, AROCLOR 1254 (10%), Method: PREINCUBATION) is “inactive; negative”. Also, the mutagenic call is “inactive; negative” under setting [2]; “inactive; negative” under setting [5]; “inactive; negative” (Test System: AMES SALMONELLA TYPHIMURIUM, Strain/Indicator: TA100, Metabolic Activation: RAT LIVER S-9, AROCLOR 1254, Method: STANDARD PLATE); “inactive; negative” (Test System: AMES SALMONELLA TYPHIMURIUM, Strain/Indicator: TA100, Metabolic Activation: RAT, LIVER, S-9, AROCLOR 1254 (10%), Method: PREINCUBATION); “inactive; negative” (Test System: AMES SALMONELLA TYPHIMURIUM, Strain/Indicator: TA1535, Metabolic Activation: HAMSTER, LIVER, S-9, AROCLOR 1254 (10%), Method: PREINCUBATION); “inactive; negative” under setting [3]. For the same compound, the mutagenic call was “inactive; negative” (Test System: AMES SALMONELLA TYPHIMURIUM, Strain/Indicator: TA1535, Metabolic Activation: NONE, Method: STANDARD PLATE); “inactive; negative” (Test System: AMES SALMONELLA TYPHIMURIUM, Strain/Indicator: TA1535, Metabolic Activation: RAT LIVER S-9, AROCLOR 1254, Method: STANDARD PLATE); “inactive; negative” (Test System: AMES SALMONELLA TYPHIMURIUM, Strain/Indicator: TA1535, Metabolic Activation: RAT, LIVER, S-9, AROCLOR 1254 (10%), Method: PREINCUBATION); “inactive; negative” (Test System: AMES SALMONELLA TYPHIMURIUM, Strain/Indicator: TA1537, Metabolic Activation: HAMSTER, LIVER, S-9, AROCLOR 1254 (10%), Method: PREINCUBATION); “inactive; negative” under setting [4]; “inactive; negative” (Test System: AMES SALMONELLA TYPHIMURIUM, Strain/Indicator: TA1537, Metabolic Activation: NONE, Method: STANDARD PLATE). For the same compound, the mutagenic call is “inactive; negative” (Test System: AMES SALMONELLA TYPHIMURIUM, Strain/Indicator: TA1537, Metabolic Activation: RAT LIVER S-9, AROCLOR 1254, Method: STANDARD PLATE); “inactive; negative” (Test System: AMES SALMONELLA TYPHIMURIUM, Strain/Indicator: TA1537, Metabolic Activation: RAT, LIVER, S-9, AROCLOR 1254 (10%), Method: PREINCUBATION); “inactive; negative” (Test System: AMES SALMONELLA TYPHIMURIUM, Strain/Indicator: TA1538, Metabolic Activation: NONE, Method: STANDARD PLATE); “inactive; negative” (Test System: AMES SALMONELLA TYPHIMURIUM, Strain/Indicator: TA1538, Metabolic Activation: RAT LIVER S-9, AROCLOR 1254, Method: STANDARD PLATE); “inactive; negative” (Test System: CHINESE HAMSTER OVARY, Strain/Indicator: CHO-K1-BH4 (HGPRT)/6-THIOGUANINE, Metabolic Activation: NONE); “inactive; negative” (Test System: CHINESE HAMSTER OVARY, Strain/Indicator: CHO-K1-BH4 (HGPRT)/6-THIOGUANINE, Metabolic Activation: RAT LIVER S-9, AROCLOR 1254).

`O=P(OCC(Br)CBr)(OCC(Br)CBr)OCC(Br)CBr` (centres undefined): the mutagenic call under setting [2] is “inactive; negative”; the mutagenic call under setting [5] is “inactive; negative”; the mutagenic call (Test System: AMES SALMONELLA TYPHIMURIUM, Strain/Indicator: TA100, Metabolic Activation: RAT LIVER S-9, PHENOBARBITAL, Method: PREINCUBATION) is “active; positive”; the mutagenic call (Test System: AMES SALMONELLA TYPHIMURIUM, Strain/Indicator: TA100, Metabolic Activation: RAT, LIVER, HEPATOCYTES, PHENOBARBITAL, Method: PREINCUBATION) was “active; positive”; the mutagenic call (Test System: AMES SALMONELLA TYPHIMURIUM, Strain/Indicator: TA100, Metabolic Activation: RAT, LIVER, HEPATOCYTES, Method: PREINCUBATION) was “active; positive”; the mutagenic call (Test System: AMES SALMONELLA TYPHIMURIUM, Strain/Indicator: TA100, Metabolic Activation: RAT, LIVER, MICROSOMES, AROCLOR 1254, Method: STANDARD PLATE) is “active; positive”. The mutagenic call by setting is: (Test System: AMES SALMONELLA TYPHIMURIUM, Strain/Indicator: TA100, Metabolic Activation: RAT, LIVER, MICROSOMES, PHENOBARBITAL, Method: PREINCUBATION) “active; positive”; (Test System: AMES SALMONELLA TYPHIMURIUM, Strain/Indicator: TA100, Metabolic Activation: RAT, LIVER, MICROSOMES, Method: PREINCUBATION) “active; positive”; (Test System: AMES SALMONELLA TYPHIMURIUM, Strain/Indicator: TA100, Metabolic Activation: RAT, LIVER, S-9, AROCLOR 1254, Method: STANDARD PLATE) “active; positive”; (Test System: AMES SALMONELLA TYPHIMURIUM, Strain/Indicator: TA104, Metabolic Activation: RAT LIVER S-9, PHENOBARBITAL, Method: PREINCUBATION) “active; positive”; (Test System: AMES SALMONELLA TYPHIMURIUM, Strain/Indicator: TA1535, Metabolic Activation: RAT, LIVER, S-9, AROCLOR 1254, Method: STANDARD PLATE) “active; positive”; (Test System: CHINESE HAMSTER V-79, Strain/Indicator: V-79/6-THIOGUANINE, Metabolic Activation: RAT, LIVER, MICROSOMES, PHENOBARBITAL) “active; positive”. The mutagenic call was “inactive; negative” (Test System: E. COLI, Strain/Indicator: WP2 UVRA, Metabolic Activation: MOUSE, LIVER, S-9, Method: STANDARD PLATE); “inactive; negative” (Test System: E. COLI, Strain/Indicator: WP2 UVRA, Metabolic Activation: NONE, Method: STANDARD PLATE); “inactive; negative” (Test System: E. COLI, Strain/Indicator: WP2 UVRA, Metabolic Activation: RAT, LIVER, S-9, Method: STANDARD PLATE); “active; positive” (Test System: UDS RAT HEPATOCYTES, Strain/Indicator: THY INCORP, Metabolic Activation: NONE); “active; positive” (Test System: UDS RODENT HEPATOCYTES, Strain/Indicator: THY INCORP (NON-S-PHASE), Metabolic Activation: RAT, LIVER, HEPATOCYTES, PHENOBARBITAL, Method: LIQUID SCINTILLATION COUNTING); “active; positive” (Test System: UDS RODENT HEPATOCYTES, Strain/Indicator: THY INCORP (NON-S-PHASE), Metabolic Activation: RAT, LIVER, HEPATOCYTES, Method: LIQUID SCINTILLATION COUNTING).
